# Test results reported in US20090209474A1, “NOVEL USES FOR DRUGS TARGETING GLUTAMINE SYNTHETASE” (NEWTHERA, priority 2005, published 2009).
# Entries after “also recorded” stand apart in the source; their conditions may differ. Like-named read-outs stand apart in the source and are kept apart here.
# How the values were obtained:
# purified sheep brain GS = assay: Purified sheep brain GS activity (Meister's method, gamma-glutamylhydroxamate formation); type: biochemical
# Wistar rats [1] = assay: Open field task in corticosterone-administered rats; type: in vivo; conditions: day 15, corticosterone 35 mg/kg s.c.; versus PCB and Control
# Wistar rats [2] = assay: Forced swimming test in corticosterone-administered rats; type: in vivo
# CA3 pyramidal neurons = assay: Surface of CA3 pyramidal neurons (Golgi) in corticosterone-administered rats; type: in vivo, Wistar rats; conditions: 21 days
# [3] = test system: glucocorticoid receptor (GR); assay: Brain glucocorticoid receptor expression by ELISA in corticosterone-administered rats; type: in vivo, Wistar rats; conditions: GF 0.1 and 3 mg/kg, MS 0.5, 15 and 45 mg/kg, tianeptine 0.5 mg/kg; versus PCB
# [4] = Adrenal weight in corticosterone-administered rats; type: in vivo, Wistar rats; conditions: 21 days, versus PCB
# [5] = Adrenal weight of rats administered methylprednisolone; type: in vivo, Wistar rats
# Method: Wistar rats were administered during 21 days once a day with methyprednisolone (5 mg/kg i.p.) plus GF (0.001, 0.01, 0.1 mg/kg), NF (1 and 10 mg/kg) or vehicle (PCB; i.p). Twenty-four hours after the last administrations, they were euthanatized. A complete necropsy was performed and main organs weighted.
# Wistar rats [6] = assay: PTZ-induced seizures; type: in vivo
# brain GS = brain GS (Mus musculus, UniProt P15105); conditions: i.p. 7 days
# GS [7] = biological target: T1, GS (Mus musculus, UniProt P15105); conditions: 24 h after single i.p.
# GS [8] = biological target: T2, GS (Rattus norvegicus, UniProt P09606); conditions: for lung GS activity: versus PCB
# GS [9] = conditions: rat, in vivo
# GS [10] = biological target: T2, GS; conditions: GF 1 mg/kg, tianeptine 10 mg/kg, methyprednisolone 5 mg/kg i.p.
# GS [11] = conditions: literature (Meister 1985; Eisenberg et al., 2000); cited from earlier work
# pathogenic mycobacteria = conditions: cited from earlier work
# [12] = in vivo, cited from earlier work
# mice [13] = conditions: cited from earlier work
# rats [14] = conditions: rat, in vivo; cited from earlier work
# dogs = conditions: based on decreased body weight at higher doses; cited from earlier work
# rabbits = conditions: rabbit, in vivo; cited from earlier work
# rats [15] = conditions: rat, in vivo; cited from earlier work; remark: listed apart in the source
# mice [16] = conditions: cited from earlier work; remark: listed apart in the source
# rats [17] = conditions: cited from earlier work
# GS [18] = biological target: T1, GS; type: in vivo, BALB/c mice; set-up: from tissue; host or cells: mouse brain (whole brain, cortex, hippocampus, thalamus/hypothalamus); conditions: 24 h after single i.p.; NF 10 and 100 mg/kg, GF 1 mg/kg
# Method: Cortex, hippocampi and thalamus/hypothalamus were carefully isolated immediately after euthanasia. Membranes were prepared and the activity of GS determined in these different structures (as mentioned above for the whole brain).
# GS [19] = biological target: T2, GS; type: in vivo, Wistar rats; set-up: Wistar rat brain homogenates were incubated with naftazone; from tissue; host or cells: Wistar rat brain homogenate or membranes; in A19 also liver and lungs
# [20] = GF 3 mg/kg, tianeptine 15 mg/kg
# [21] = 21 days, versus PCB and Control
# T2 sequence (P09606 2-373 limits assumed): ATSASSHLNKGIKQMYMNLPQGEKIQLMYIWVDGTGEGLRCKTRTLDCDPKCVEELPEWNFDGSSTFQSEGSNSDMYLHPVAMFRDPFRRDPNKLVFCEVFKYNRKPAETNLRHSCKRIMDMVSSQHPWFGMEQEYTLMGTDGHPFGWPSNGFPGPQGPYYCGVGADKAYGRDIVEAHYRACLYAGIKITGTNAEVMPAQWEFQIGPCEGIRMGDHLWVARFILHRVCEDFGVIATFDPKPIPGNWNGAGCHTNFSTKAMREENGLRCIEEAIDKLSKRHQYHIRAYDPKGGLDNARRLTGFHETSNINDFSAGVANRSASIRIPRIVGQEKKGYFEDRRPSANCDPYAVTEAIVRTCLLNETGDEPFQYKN
# Chain of brain GS (P15105 2-373 limits assumed): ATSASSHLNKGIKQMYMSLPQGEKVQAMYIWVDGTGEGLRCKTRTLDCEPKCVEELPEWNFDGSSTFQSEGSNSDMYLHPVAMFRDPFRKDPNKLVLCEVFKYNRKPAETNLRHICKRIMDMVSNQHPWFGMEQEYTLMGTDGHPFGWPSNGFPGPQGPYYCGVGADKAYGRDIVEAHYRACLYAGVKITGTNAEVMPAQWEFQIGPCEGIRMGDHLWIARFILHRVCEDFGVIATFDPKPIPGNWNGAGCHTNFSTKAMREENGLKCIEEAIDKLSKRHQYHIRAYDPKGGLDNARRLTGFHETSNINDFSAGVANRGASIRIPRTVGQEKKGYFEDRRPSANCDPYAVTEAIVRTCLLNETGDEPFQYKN
# T1 sequence (P15105 2-373 limits assumed): as above
compound,measurement,setting,value
"CP(=O)(O)CCC(N)C(=O)O (racemic) [GF, ammonium 4-[hydroxy (methyl)phosphinoyl]-DL-homoalaninate]",type of competition,purified sheep brain GS,competitive with L-glutamine
same,effect on GS activity at “high” concentrations,purified sheep brain GS; in absence of 2βME,inhibit GS activity at “high” concentrations
same,“low concentrations” that activate GS activity,purified sheep brain GS; in absence of 2βME,10^−4 to 10^−11 M
same,effect on GS subunit (monomer) activity,purified sheep brain GS; in presence of 2β-ME (DTT for tianeptine),inhibit GS activity at “high” concentrations
same,resting time in the open field task,Wistar rats [1],higher
same,immobility in the forced swimming test,"Wistar rats [2]; GF 0.1 mg/kg, tianeptine 0.5 mg/kg",clear decrease in immobility
same,immobility in the forced swimming test,"Wistar rats [2]; day 19, corticosterone 35 mg/kg s.c., versus PCB and Control",comparable or lower
same,effects of corticosterone on CA3 pyramidal neurons,CA3 pyramidal neurons; GF 15 mg/kg,failed to blunt the effects of corticosterone
same,effects of corticosterone on CA3 pyramidal neurons,CA3 pyramidal neurons; GF 0.1 and 3 mg/kg,prevent in part the deleterious effects of corticosterone
same,brain GR expression,[3],higher
same,adrenal weight,[4],higher
same,methylprednisolone-induced adrenal atrophy,[5]; GF 0.001 mg/kg,fully prevented
same,adrenal weight,"[5]; GF 0.001, 0.01, 0.1 mg/kg, NF 1 and 10 mg/kg, methyprednisolone 5 mg/kg i.p., 21 days, versus PCB",higher
same,dose relation of the effect on adrenal weight,"[5]; rat, in vivo",non dose-dependent effect
same,seizure occurrence after PTZ administration,"Wistar rats [6]; GF 0.5, 5, 25 mg/kg, tianeptine 1, 10, 50 mg/kg i.p. 1 h before PTZ 50 mg/kg i.p.",decreased seizure occurrence
same,dose relation of the effect on seizures,"Wistar rats [6]; rat, in vivo",not dose-dependent
same,brain GS expression,brain GS; [20],increased also GS expression
same,whole brain GS activity,brain GS; [20],increase GS activity
same,dose relation of effects on GS activity and GS expression,brain GS,dose-dependent
same,whole brain GS activity at higher doses,"brain GS; doses above GF 3 mg/kg, tianeptine 15 mg/kg",decreased GS activity
same,GS activity in the hippocampus,GS [7],dose-dependently increased GS activity
same,GS activity in the thalamus/hypothalamus,GS [7],decreased GS activity
same,GS activity in the cortex,"GS [7]; GF 0.1, 3, 15 mg/kg, tianeptine 0.5, 15, 45 mg/kg",no significant effect
same,lung GS activity,"GS [8]; 21 days, most rats",decrease in lung GS activity
same,brain GS activity,GS [8]; [21],dose-dependent decrease
same,liver GS activity,GS [8]; [21],clear decrease
same,lung GS activity,GS [8]; [20],remained in the same range
same,brain GS expression,GS [9],higher
same,GS activity in the cortex,GS [10],Trend to an Decrease
same,GS activity in the hippocampus,GS [10],Increase of GS Activity
same,GS activity in the thalamus/hypothalamus,GS [10]; 1 h and 24 h after last administration,Decreased GS Activity
same,nature of the binding to GS,GS [11],"selective, irreversible GS ligand; also recorded: bind GS irreversibly"
same,effect on mycobacterium growth,pathogenic mycobacteria,only a very minor inhibitory effect
same,part of an oral dose eliminated in the urine,[12]; po,10-15%
same,main metabolite found in urine and in faeces,[12],3-[hydroxy(methyl)phosphinoyl] propionic acid
same,NOAEL,mice [13]; based upon increased plasma potassium at next highest dose,80 ppm
same,NOAEL,mice [13]; females,19 mg/kg bw/day
same,NOAEL,mice [13]; males,17 mg/kg bw/day
same,dose levels with effects on kidney weight,rats [14],≥ 0.52 mg/kg bw/day
same,NOAEL,dogs,4.5 mg/kg bw/day
same,NOAEL for maternal and embryo/fetal toxicity,rabbits,6.3 mg/kg bw/day
same,teratogenicity,rabbits,not teratogenic
same,NOAEL for maternal and embryo/fetal toxicity,rats [15],2.2 mg/kg bw/day
same,teratogenicity,rats [15],not teratogenic
same,NOAEL,mice [16]; increased mortality at higher dietary concentrations,80 ppm
same,NOAEL,"mice [16]; mouse, in vivo",11 mg/kg bw/day
same,carcinogenicity,"mice [16]; mouse, in vivo",not carcinogenic
same,NOAEL,rats [17]; increased kidney weight at 140 ppm,40 ppm
same,NOAEL,"rats [17]; rat, in vivo",2.1 mg/kg bw/day
same,carcinogenicity,"rats [17]; rat, in vivo",not carcinogenic
same,GS activity in the thalamus/hypothalamus,GS [18],decreased
same,"GS activity in the cortex, hippocampus and thalamus/hypothalamus",GS [19]; one hour after PTZ administration,increased GS activity
same,dose relation of the effects on GS activity,"GS [19]; rat, in vivo",not proportional to the dose
